Test results from PMC5433701, “SPR-based fragment screening with neurotensin receptor 1 generates novel small molecule ligands” (PLoS ONE, 2017).
Where two headings read alike, the source gives them in different places.

What was measured:
[1] = pKa determination; assay type: physicochemical
[2] = biological target: rat NTS1-H4 receptor; test: SPR kinetic binding of reference ligands on captured NTS1-H4 receptor
Procedure: All SPR binding experiments were performed on Biacore® 3000, T200 and Biacore 4000 (GE Healthcare, Uppsala, Sweden) instruments at 15°C in a running buffer composed of 20 mM Tris, 150 mM NaCl, 0.01% (v/v) L-MNG, 2% (v/v) DMSO, pH 8.0, at flow of 30 μl·min^-1. Running buffer was prepared freshly every day and filtered with Express™Plus Steritop filters with 0.22 μm cut off (Millipore, Billerica, MA, USA) and degassed prior to SPR analysis. Dose-response experiments for peptides were performed in the buffer without DMSO, as the analyzed peptide concentration range was in nM range and it was not necessary to work with DMSO in the running buffer to correct for the resonance signals. […]
All SPR data processing and analyses were performed using BiaEvaluation Software (version 1.0 (Biacore 4000) and 4.1 (Biacore 3000)), and GraphPadPrism (version 6.04). All monitored binding resonance signals were corrected regarding DMSO solvent signals and further double-referenced, i. e., signals monitored on the binding active channel were subtracted by signals from the reference channel (sensor surface not modified with any reference protein) and by buffer signals. […]

[3] = tested on: NTS1-H4 receptor; test: SPR competition of NT8-13 and SR142948 on NTS1-H4 receptor; assay type: binding, rat; conditions: 100 nM NT8-13 then 100 nM SR142948 injected subsequently
Procedure: Supplementary file pone.0175842.s003.pdf: S3 Fig Competition of neurotensin peptide NT8-13 and antagonist SR142948 on the NTS1-H4 receptor. NT8-13 agonist (saturating concentration of 100 nM) and antagonist SR142948 (saturating concentration of 100 nM) were injected subsequently over the NTS1-H4 receptor-coated surface. No binding of SR142948 was detected on the NTS1-H4 receptor that had been saturated previously by agonist NT8-13 peptide, indicating complete occupancy of the binding site and binding to the same binding site. (PDF) Click here for additional data file.

[4] = biological target: NTS1-H4; set-up: method as in PMID 25064156; conditions: competition with fluorescently labeled NT8-13, NTS1-H4-coated beads; cited from earlier work

Compound: Nc1nnc2c(C(F)(F)F)nc3ccccc3n12 [fragment 1]
- pKa ([1]; read-out: pKa1 ± σ): 2.14 ± 0.04

Compound: COc1cccc(S(=O)(=O)c2ccccc2CC(N)=O)c1 [fragment 2]
- pKa1 ± σ [1]: out of range

Compound: COc1ccc(N(C(C)C)S(N)(=O)=O)cc1 [fragment 3]
- pKa ([1]; read-out: pKa1 ± σ): 6.49 ± 0.04
- pKa ([1]; read-out: pKa2): 11.04 ± 0.08

Compound: COc1ccc(Cc2nn[nH]n2)cc1 [fragment 4]
- pKa ([1]; read-out: pKa1 ± σ): 4.86 ± 0.08

Compound: SR142948
- Kd [2]: 0.4 nM
- binding to NTS1-H4 receptor previously saturated by NT8-13 [3]: No binding
- Ki [4]: 0.5 nM
